# In patent US5773628A, “1,2-dioxetane compounds with haloalkoxy groups, methods preparation and use” (Tropix, Inc., priority 1994, dated 1998):
# Entries after “also recorded” stand apart in the source; their conditions may differ.
# Experiments:
# [1] = Base-induced decomposition of hydroxy dioxetanes (first order decay of chemiluminescence); type: physicochemical; details: 37° C.; 0.2M 2-methyl-2-amino-1-propanol buffer pH 9.6, 0.88 mM Mg+2, 1.0 mg/mL Enhancer A
# Procedure: (§1) Calf intestinal alkaline phosphatase (AP) was obtained from Biozyme (San Diego, Calif.). Other chemical reagents were obtained from Aldrich Chemical Co. (Milwaukee). Nuclear magnetic resonance (NMR) spectra were obtained on a Varian Gemini 300 spectrometer as solutions in D2 O or CDCl3. Chemiluminescence intensities and rate measurements were performed using either a Turner Designs (Sunnyvale, Calif.) model TD-20e luminometer, a Luminoskan luminometer (Helsinki, Finland), a charge-coupled device camera luminometer constructed in the inventors' laboratory or a luminometer constructed in the inventors' laboratory consisting of an electrically heated sample block, an optical fiber and associated optics for light collection and a photomultiplier tube. Temperature control of samples analyzed in the commercial luminometers was achieved by means of a circulating bath connected to the instrument. Quantitative measurement of light intensities on the Turner luminometer was extended beyond the 10^4 linear range of the detector by a neutral density filter. Data collection from each of the instruments was controlled by an Apple MacIntosh SE/30 computer using the LUMISOFT data reduction program (Lumigen).
# The first order decay of chemiluminescence of dioxetanes 1 and 3 in 0.2M 2-methyl-2-amino-1-propanol buffer, pH 9.6 containing 0.88 mM Mg^+2 and 1.0 mg/mL of Enhancer A at 37° C. was measured in a luminometer. The half-life of decay of chemiluminescence (t1/2) of dioxetanes 1 and 3 in 0.2M 2-methyl-2-amino-1-propanol buffer, pH 9.6 containing 0.88 mM Mg^+2 and 1.0 mg/mL of Enhancer A correlate with the times required to reach the maximum light intensity (Imax) in the alkaline phosphatase-triggered decomposition of dioxetanes 2 and 5 in the same buffer solution. The half-life of decay of luminescence of the hydroxy dioxetane homologous to a phosphate-protected dioxetane, therefore, is useful for predicting the grow-in kinetics of light emission for phosphatase triggering of the corresponding phosphate dioxetane. In particular, hydroxy dioxetanes which show a faster t1/2 than dioxetane 1 indicate that the corresponding phosphate dioxetanes are expected to reach Imax more quickly. Other hydroxy dioxetanes (7-9) were then examined under the same conditions.
# [2] = tested on: Calf intestinal alkaline phosphatase (AP); test: Kinetic profile of alkaline phosphatase-triggered chemiluminescence (time to 95% of maximum intensity); type: biochemical; details: for Time to Reach 95% of Maximum Light Intensity from Alkaline Phosphatase-Triggering: 37° C.
# Procedure: as §1
# The improvement in detection speed afforded by compositions containing the phosphate dioxetane 5 is shown in Table 2 through a comparison with dioxetane 2 of the times to reach 95% of the maximum chemiluminescence intensities produced by reaction with AP. Three different reagent compositions containing either dioxetane 2, 4-methoxy-4-(3-phosphoryloxy-phenyl)spiro[1,2-dioxetane-3,2'-tricyclo-[3.3.1.1^3,7 ]decane], disodium salt, (LUMIGEN PPD, Lumigen, Inc.) or 5 were reacted at 37° C. with AP. Composition A consists of 0.33 mM dioxetane in 0.2M 2-methyl-2-amino-1-propanol buffer (pH 9.6) containing 1.0 mg/mL 1-(tri-n-octylphosphoniummethyl)-4-(tri-n-butylphosphonium-methyl) benzene dichloride (Enhancer A); 100 μL portions were reacted with 3.36×10^-16 mol of enzyme. Composition B consists of 0.33 mM dioxetane in 0.2M 2-methyl-2-amino-1-propanol buffer (pH 9.6) containing 0.5 mg/mL of polyvinylbenzyl-tributylphosphon ium chloride co-polyvinylbenzyltrioctyl-phosphonium chloride (containing a 3:1 ratio of tributyl:trioctyl groups) the preparation of which is described in European Patent Application 561,033 published Sep. 22, 1993 (Enhancer B); 100 μL portions were reacted with 3.36×10^-16 mol of enzyme. Composition C consists of 0.33 mM dioxetane in 0.2M 2-methyl-2-amino-1-propanol buffer (pH 9.6); 500 μL portions were reacted with 1.12×10^-15 mol of enzyme.
# [3] = tested on: Calf intestinal alkaline phosphatase (AP); test: Effect of enhancer concentration on AP-induced chemiluminescence intensity and kinetics; comparison of optimized solutions; type: biochemical
# Procedure: FIG. 1 is a graph showing the time profiles of the chemiluminescence intensity emitted by 100 μL of a reagent containing dioxetane 5 (4-(2,2,2-trifluoroethoxy)-4-(3-phosphoryloxyphenyl)spiro[1,2-dioxetane-3,2'-tricyclo-[3.3.1.1^3,7 ]decane] disodium salt) and various amounts of an enhancer triggered at 37° C. by addition of 1.12×10^-17 mol of alkaline phosphatase (AP). The reagent consists of a 0.33 mM solution of the dioxetane 5 in 0.2M 2-amino-2-methyl-1-propanol buffer, pH 9.6 containing 0.1, 0.25, 0.5 or 1 mg/mL of 1-(tri-n-octylphosphoniummethyl)-4-(tri-n-butyl-phosphoniummethyl)benzene dichloride (Enhancer A).
# FIG. 2 is a graph showing a comparison of the time profile of the chemiluminescence intensity emitted by 100 μL of a reagent containing dioxetane 5 and various amounts of an enhancer triggered at 37° C. by addition of 1.12×10^-17 mol of AP. The reagents consist of a 0.33 mM solution of dioxetane 5 in 0.2M 2-amino-2-methyl-1-propanol buffer, pH 9.6 containing 0.01, 0.025, 0.1 or 0.5 mg/mL of polyvinylbenzyltributylphosphonium chloride co-polyvinylbenzyltri-octylphosphonium chloride (containing a 3:1 ratio of tributyl:trioctyl groups), Enhancer B, the preparation of which is described in European Patent Application 561,033 published Sep. 22, 1993.
# FIG. 3 is a graph showing a comparison of the time profile of the chemiluminescence intensity emitted by 100 μL of enhanced reagents containing either dioxetane 2 (LUMIGEN PPD, Lumigen, Inc., Southfield, Mich.) or 5 triggered at 37° C. by addition of 1.12×10^-17 mol of AP. The reagents consist of 1) a 0.33 mM solution of dioxetane 2 in 0.2M 2-amino-2-methyl-1-propanol buffer, pH 9.6 containing 1.0 mg/mL of the enhancer 1-(tri-n-octylphosphoniummethyl)-4-(tri-n-butylphosphoniummethyl) benzene dichloride, and 2) a 0.33 mM solution of dioxetane 5 in 0.2M 2-amino-2-methyl-1-propanol buffer, pH 9.6 containing 0.1 mg/mL of the same enhancer.
# FIG. 4 is a graph showing a comparison of the time profile of the chemiluminescence intensity emitted by 100 μL of another pair of enhanced reagents containing either dioxetane 2 or 5 triggered at 37° C. by addition of 1.12×10^-17 mol of AP. The reagents consist of 1) a 0.33 mM solution of dioxetane 2 in 0.2M 2-amino-2-methyl-1-propanol buffer, pH 9.6 containing 0.5 mg/mL of Enhancer B and 2) a 0.33 mM solution of dioxetane 5 in 0.2M 2-amino-2-methyl-1-propanol buffer, pH 9.6 containing 0.25 mg/mL of the same enhancer.
# as §1
# A concentration dependence study was conducted in an effort to find the optimum amount of enhancer A to use in the alkaline phosphatase-induced chemiluminescent reaction of dioxetane 5. Solutions of dioxetane 5 in 0.2M 2-methyl-2-amino-1-propanol buffer, pH 9.6 containing 0.88 mM Mg^+2 and 1, 0.5, 0.25 or 0.1 mg/mL of Enhancer A were prepared. […]
# [4] = tested on: Calf intestinal alkaline phosphatase (AP); test: Relative chemiluminescence quantum yields (total light after complete dephosphorylation by AP); type: biochemical
# Procedure: as §1
# The relative chemiluminescence quantum yields of dioxetanes 2 and 5 were determined in formulations containing 1 mg/mL or 0.1 mg/mL of Enhancer A in 0.2M 2-amino-2-methyl- 1-propanol buffer, pH 9.6 containing 0.88 mM Mg^+2. A 100 μL aliquot of each reagent was completely dephosphorylated by addition of 3.36×10^-13 mol of alkaline phosphatase. The total amount of light emitted in Relative Light Units (RLU) was integrated until light emission ceased. A similar comparison was also made with 500 μL portions of formulations without any enhancer using 0.75M 2-amino-2-methyl-1-propanol buffer, pH 9.6 containing 0.88 mM Mg^+2.
# [5] = tested on: Calf intestinal alkaline phosphatase (AP); test: Chemiluminescent detection of alkaline phosphatase on membrane; type: biochemical; details: 1 mg/mL Enhancer A, pH 9.6, 0.33 mM dioxetane, AP 1.1 fmol to 1.1 amol, X-ray film (FIG. 6)
# Procedure: FIG. 6 is a digitally scanned image of an X-ray film from an experiment detecting alkaline phosphatase on a membrane with chemiluminescence. Solutions of alkaline phosphatase in water containing from 1.1×10^-15 to 1.1×10^-18 mol were applied to identical nylon membranes (Micron Separations Inc., Westboro, Mass). The membranes were air dried for 5 min and soaked briefly with a reagent containing 1 mg/mL of Enhancer A in 0.2M 2-amino-2-methyl-1-propanol buffer, pH 9.6 containing 0.88 mM MgCl and either 0.33 mM dioxetane 2 or 0.33 mM dioxetane 5. The membranes were placed between transparent plastic sheets and exposed to X-ray film (Kodak X-OMAT AR, Rochester, N.Y.).
# Calf intestinal alkaline phosphatase (AP) was obtained from Biozyme (San Diego, Calif.). Other chemical reagents were obtained from Aldrich Chemical Co. (Milwaukee). Nuclear magnetic resonance (NMR) spectra were obtained on a Varian Gemini 300 spectrometer as solutions in D2 O or CDCl3. […] Temperature control of samples analyzed in the commercial luminometers was achieved by means of a circulating bath connected to the instrument. Quantitative measurement of light intensities on the Turner luminometer was extended beyond the 10^4 linear range of the detector by a neutral density filter. […]
# [6] = Composition A: 0.33 mM dioxetane, 0.2M 2-methyl-2-amino-1-propanol buffer pH 9.6, 1.0 mg/mL Enhancer A, 100 μL, 3.36×10^-16 mol AP
# [7] = Composition B: 0.33 mM dioxetane, buffer pH 9.6, 0.5 mg/mL Enhancer B, 100 μL, 3.36×10^-16 mol AP
# [8] = Composition C: 0.33 mM dioxetane, buffer pH 9.6, no enhancer, 500 μL, 1.12×10^-15 mol AP
# [9] = Enhancer A 1 mg/mL, 100 μL, 0.2M buffer pH 9.6, 3.36×10^-13 mol AP
# [10] = No enhancer, 500 μL, 0.75M 2-amino-2-methyl-1-propanol buffer pH 9.6, 0.88 mM Mg+2
Compound,t1/2 of decay of chemiluminescence [1],"Time to Reach 95% of Maximum Light Intensity from Alkaline Phosphatase-Triggering [2, 6]","Time to Reach 95% of Maximum Light Intensity from Alkaline Phosphatase-Triggering [2, 7]","Time to Reach 95% of Maximum Light Intensity from Alkaline Phosphatase-Triggering [2, 8]","Total Light Intensity [4, 9]","Total Light Intensity [4, 10]",other results
COC1(c2cccc(O)c2)OOC12C1CC3CC(C1)CC2C3 (stereo not drawn) [Dioxetane 1],15.9 min,,,,,,
COC1(c2cccc(OP(=O)(O)O)c2)OOC12C1CC3CC(C1)CC2C3 (stereo not drawn) [Dioxetane 2],,32 min,37 min,6 min,9.24 × 10^6 RLU,4.41 × 10^4 RLU,Rise time to maximum light intensity ([3]; Enhancer B reduced from 3 mg/mL to 0.1 mg/mL): essentially constant at an hour or more; Rise time to maximum light intensity ([3]; all concentrations of Enhancer A from 0.1 mg/mL to 3 mg/mL): an hour or more
Oc1cccc(C2(OCC(F)(F)F)OOC23C2CC4CC(C2)CC3C4)c1 (stereo not drawn) [Dioxetane 3],2.0 min,,,,,,
O=P(O)(O)Oc1cccc(C2(OCC(F)(F)F)OOC23C2CC4CC(C2)CC3C4)c1 (stereo not drawn) [Dioxetane 5],,6 min,4.3 min,4.5 min,1.23 × 10^7 RLU,9.65 × 10^4 RLU,"Plateau light intensity compared to dioxetane 2 ([2]; Composition A): higher plateau light intensity; Chemiluminescence intensity and time profile compared to dioxetane 2 (1 mg/mL Enhancer A) ([3]; 0.33 mM dioxetane 5 with 0.1 mg/mL Enhancer A, 37° C., 1.12×10^-17 mol AP (FIG. 3)): reaches a significantly higher maximum intensity and reaches a plateau much more rapidly; also recorded: more intense chemiluminescence under these conditions but also a shorter delay until the maximum intensity is reached; Chemiluminescence intensity and time profile compared to dioxetane 2 (0.5 mg/mL Enhancer B) ([3]; 0.33 mM dioxetane 5 with 0.25 mg/mL Enhancer B, 37° C., 1.12×10^-17 mol AP (FIG. 4)): reaches a higher light intensity in the first 15 minutes; also recorded: a higher light intensity within the first 15 min; Plateau light intensity and rise time vs. amount of Enhancer A ([3]; Enhancer A 1, 0.5, 0.25 or 0.1 mg/mL, pH 9.6, 37° C., 1.12×10^-17 mol AP (FIG. 1)): increasingly higher plateau light intensities and slower rise times as the amount of enhancer is reduced; Rise time vs. amount of Enhancer B ([3]; Enhancer B 0.5 to 0.01 mg/mL, pH 9.6, 37° C., 1.12×10^-17 mol AP (FIG. 2)): slower rise times as the amount of enhancer is reduced from 0.5 to 0.01 mg/mL; Total Light Intensity ([4]; Enhancer A 0.1 mg/mL, 100 μL, 0.2M buffer pH 9.6, 3.36×10^-13 mol AP): 1.01 × 10^7 RLU; Total light produced compared to dioxetane 2 ([4]; with or without Enhancer A): produces more light than dioxetane 2; Image intensity and detection sensitivity on nylon membrane compared to dioxetane 2 [5]: more intense images and better detection sensitivity"
Oc1cccc(C2(OCC(F)F)OOC23C2CC4CC(C2)CC3C4)c1 (stereo not drawn) [Dioxetane 7],2.8 min,,,,,,
Oc1cccc(C2(OCCF)OOC23C2CC4CC(C2)CC3C4)c1 (stereo not drawn) [Dioxetane 8],6.1 min,,,,,,
